From patent publication US9434743B2, “Indazole derivatives” (TAKEDA PHARMACEUTICAL COMPANY LIMITED, priority 2012, dated 2016)

Assays:
human MetAP2 enzyme [1] = molecular target: T1, human MetAP2 enzyme (Homo sapiens, UniProt P50579); assay: MetAP2 enzyme assay, enzyme complexed with cobalt ions; conditions: MetAP2 Co pIC50, MetAP2 enzyme complexed with cobalt ions; Met-AMC substrate at Km
human MetAP2 enzyme [2] = molecular target: T1, human MetAP2 enzyme; assay: MetAP2 enzyme assay, enzyme complexed with manganese ions; conditions: MetAP2 Mn pIC50, MetAP2 enzyme complexed with manganese ions; Met-AMC substrate at Km
Description: DNA encoding the full-length sequence of human MetAP2 enzyme is amplified by PCR and cloned into a pFastBac expression vector (Invitrogen). Recombinant baculovirus incorporating the MetAP2 construct is generated by transposition using the Bac-to-Bac system (Invitrogen). The expression of recombinant protein is carried out by infection of Spodoptera frugiperda Sf9 cells (Invitrogen) in 5 L Wave Bioreactors (Wave Biotech). Recombinant protein is isolated from cellular extracts by binding to an SP Hitrap Fast Flow or SP Sepharose (Sigma) column, and the protein is eluted using a NaCl gradient. Partially purified extracts of MetAP2 are further purified by an AKTA FPLC over a Superdex-200 column (GE). The purity of MetAP2 protein is determined on denaturing SDS-PAGE gel.
The results for each well are expressed as percent inhibition and calculated using the equation:

T1 sequence (P50579 whole entry): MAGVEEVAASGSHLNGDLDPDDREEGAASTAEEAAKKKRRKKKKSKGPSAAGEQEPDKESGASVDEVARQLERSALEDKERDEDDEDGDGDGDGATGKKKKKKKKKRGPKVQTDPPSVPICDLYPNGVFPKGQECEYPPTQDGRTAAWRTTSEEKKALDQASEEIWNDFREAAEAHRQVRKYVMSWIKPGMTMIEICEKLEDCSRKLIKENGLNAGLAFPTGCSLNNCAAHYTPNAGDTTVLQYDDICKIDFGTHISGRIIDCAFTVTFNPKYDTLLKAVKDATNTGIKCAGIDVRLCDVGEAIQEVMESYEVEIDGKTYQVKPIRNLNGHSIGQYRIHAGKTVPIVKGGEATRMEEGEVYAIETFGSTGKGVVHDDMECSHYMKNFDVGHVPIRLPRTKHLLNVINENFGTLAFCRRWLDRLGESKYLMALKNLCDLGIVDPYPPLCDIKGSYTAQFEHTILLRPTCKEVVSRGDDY

Compound | IC50 (human MetAP2 enzyme [1]) | IC50 (human MetAP2 enzyme [2])
O=C(NC1CC1)c1ccc(-c2cc(C(F)(F)F)cc3[nH]ncc23)cc1 [Example 35, N-cyclopropyl-4-(6-(trifluoromethyl)-1H-indazol-4-yl)benzamide] | 25.1 nM | 7.94 nM
O=C1Cc2cc(-c3cc(C(F)(F)F)cc4[nH]ncc34)ccc2N1 [Example 235, 5-(6-(trifluoromethyl)-1H-indazol-4-yl)indolin-2-one] | 12.6 nM | 3.98 nM
O=c1[nH]cc(-c2cc(C(F)(F)F)cc3[nH]ncc23)c(=O)[nH]1 [Example 54, 5-(6-(trifluoromethyl)-1H-indazol-4-yl)pyrimidine-2,4(1H,3H)-dione] | 398 nM | 6.31 nM
Cc1nn(C[C@@H]2CCC(=O)N2)c(C)c1-c1cc(C(F)(F)F)cc2[nH]ncc12 [Example 364, (5S)-5-((3,5-dimethyl-4-(6-(trifluoromethyl)-1H-indazol-4-yl)-1H-pyrazol-1-yl)methyl)pyrrolidin-2-one] | 79.4 nM | 20 nM
FC(F)(F)c1cc(-c2cccnc2OCc2ccccc2)c2cn[nH]c2c1 [Example 99, 4-(2-(benzyloxy)pyridin-3-yl)-6-(trifluoromethyl)-1H-indazole] | 631 nM | 39.8 nM
Cc1nc(CCS(C)(=O)=O)ccc1-c1cc(C(F)(F)F)cc2[nH]ncc12 [Example 409, 4-(2-methyl-6-(2-(methylsulfonyl)ethyl)pyridin-3-yl)-6-(trifluoromethyl)-1H-indazole] | 15.8 nM | 3.98 nM
CNC(=O)c1ccc(-c2cc(C(F)(F)F)cc3[nH]ncc23)cc1 [Example 117, N-methyl-4-(6-(trifluoromethyl)-1H-indazol-4-yl)benzamide] | 15.8 nM | 3.16 nM
FC(F)(F)c1cc(-c2cnn(Cc3ccccn3)c2)c2cn[nH]c2c1 [Example 72, 4-(1-(pyridin-2-ylmethyl)-1H-pyrazol-4-yl)-6-(trifluoromethyl)-1H-indazole] | 25.1 nM | 2.51 nM
Cc1nn(CCC(N)=O)c(C)c1-c1cc(C(F)(F)F)cc2[nH]ncc12 [Example 172, 3-(3,5-dimethyl-4-(6-(trifluoromethyl)-1H-indazol-4-yl)-1H-pyrazol-1-yl)propanamide] | 50.1 nM | 7.94 nM
Nc1ncc(F)cc1-c1cc(C(F)(F)F)cc2[nH]ncc12 [Example 194, 5-fluoro-3-(6-(trifluoromethyl)-1H-indazol-4-yl)pyridin-2-amine] | 158 nM | 10 nM
COc1cccc(-c2cc(C(F)(F)F)cc3[nH]ncc23)c1OC [Example 87, 4-(2,3-dimethoxyphenyl)-6-(trifluoromethyl)-1H-indazole] | 126 nM | 7.94 nM
Cc1nn(CC(=O)N(C)C)c(C)c1-c1cc(C(F)(F)F)cc2[nH]ncc12 [Example 363, 2-(3,5-dimethyl-4-(6-(trifluoromethyl)-1H-indazol-4-yl)-1H-pyrazol-1-yl)-N,N-dimethylacetamide] | 79.4 nM | 15.8 nM
FC(F)(F)c1cc(-c2cccc3cccnc23)c2cn[nH]c2c1 [Example 31, 8-(6-(trifluoromethyl)-1H-indazol-4-yl)quinoline] | 200 nM | 15.8 nM
Cn1cc(C(=O)NC2CC2)cc(-c2cc(C(F)(F)F)cc3[nH]ncc23)c1=O [Example 357, N-cyclopropyl-1-methyl-6-oxo-5-(6-(trifluoromethyl)-1H-indazol-4-yl)-1,6-dihydropyridine-3-carboxamide] | 200 nM | 7.94 nM
O=c1[nH]cnc2[nH]nc(-c3cc(C(F)(F)F)cc4[nH]ncc34)c12 [Example 156, 3-(6-(trifluoromethyl)-1H-indazol-4-yl)-1H-pyrazolo[3,4-d]pyrimidin-4(5H)-one] | 501 nM | 31.6 nM
Cc1nn(-c2nnn[nH]2)c(C)c1-c1cc(C(F)(F)F)cc2[nH]ncc12 [Example 169, 4-(3,5-dimethyl-1-(1H-tetrazol-5-yl)-1H-pyrazol-4-yl)-6-(trifluoromethyl)-1H-indazole] | 251 nM | 20 nM
CN1C(=O)Cc2cc(-c3cc(C(F)(F)F)cc4[nH]ncc34)ccc21 [Example 234, 1-methyl-5-(6-(trifluoromethyl)-1H-indazol-4-yl)indolin-2-one] | 20 nM | 3.98 nM
O=C(NCCO)c1ccc(-c2cc(C(F)(F)F)cc3[nH]ncc23)cn1 [Example 270, N-(2-hydroxyethyl)-5-(6-(trifluoromethyl)-1H-indazol-4-yl)picolinamide] | 39.8 nM | 3.16 nM
Cc1ccc(C(=O)N2CCC(O)C2)cc1-c1cc(C(F)(F)F)cc2[nH]ncc12 (stereo not shown) [Example 370, (3-hydroxypyrrolidin-1-yl)(4-methyl-3-(6-(trifluoromethyl)-1H-indazol-4-yl)phenyl)methanone] | 126 nM | 31.6 nM

Compound | IC50 (human MetAP2 enzyme [1]) | IC50 (human MetAP2 enzyme [2])
CN1CCOc2cc(-c3cc(C(F)(F)F)cc4[nH]ncc34)cnc21 [Example 122, 4-methyl-7-(6-(trifluoromethyl)-1H-indazol-4-yl)-3,4-dihydro-2H-pyrido[3,2-b][1,4]oxazine] | 39.8 nM | 12.6 nM
Cc1nn(CC(=O)NC(C)C)c(C)c1-c1cc(C(F)(F)F)cc2[nH]ncc12 [Example 352, 2-(3,5-dimethyl-4-(6-(trifluoromethyl)-1H-indazol-4-yl)-1H-pyrazol-1-yl)-N-isopropylacetamide] | 39.8 nM | 20 nM
O=C(NCC(O)CO)c1c[nH]c(=O)c(-c2cc(C(F)(F)F)cc3[nH]ncc23)c1 (stereo not shown) [Example 337, N-(2,3-dihydroxypropyl)-6-oxo-5-(6-(trifluoromethyl)-1H-indazol-4-yl)-1,6-dihydropyridine-3-carboxamide] | 398 nM | 15.8 nM
Cc1cn(C)c(-c2cc(C(F)(F)F)cc3[nH]ncc23)n1 [Example 163, 4-(1,4-dimethyl-1H-imidazol-2-yl)-6-(trifluoromethyl)-1H-indazole] | 794 nM | 12.6 nM
NS(=O)(=O)c1ccc(-c2cc(C(F)(F)F)cc3[nH]ncc23)c(F)c1 [Example 342, 3-fluoro-4-(6-(trifluoromethyl)-1H-indazol-4-yl)benzenesulfonamide] | 39.8 nM | 6.31 nM
FC(F)(F)c1cc(-c2c[nH]c3nccnc23)c2cn[nH]c2c1 [Example 157, 7-(6-(trifluoromethyl)-1H-indazol-4-yl)-5H-pyrrolo[2,3-b]pyrazine] | 251 nM | 12.6 nM
Cc1nc2ccccn2c1-c1cc(C(F)(F)F)cc2[nH]ncc12 [Example 150, 4-(2-methylimidazo[1,2-a]pyridin-3-yl)-6-(trifluoromethyl)-1H-indazole] | 794 nM | 251 nM
Cc1nn(CC(=O)NCCO)c(C)c1-c1cc(C(F)(F)F)cc2[nH]ncc12 [Example 386, 2-(3,5-dimethyl-4-(6-(trifluoromethyl)-1H-indazol-4-yl)-1H-pyrazol-1-yl)-N-(2-hydroxyethyl)acetamide] | 63.1 nM | 12.6 nM
Cn1cc(-c2cc(C(F)(F)F)cc3[nH]ncc23)c(=O)n(Cc2ccc(F)cc2)c1=O [Example 311, 3-(4-fluorobenzyl)-1-methyl-5-(6-(trifluoromethyl)-1H-indazol-4-yl)pyrimidine-2,4(1H,3H)-dione] | 1000 nM | 63.1 nM
Cc1ncccc1-c1cc(C(F)(F)F)cc2[nH]ncc12 [Example 50, 4-(2-methylpyridin-3-yl)-6-(trifluoromethyl)-1H-indazole] | 31.6 nM | 5.01 nM
O=C(c1c[nH]c(=O)c(-c2cc(C(F)(F)F)cc3[nH]ncc23)c1)N1CCOCC1 [Example 298, 5-(morpholine-4-carbonyl)-3-(6-(trifluoromethyl)-1H-indazol-4-yl)pyridin-2(1H)-one] | 398 nM | 10 nM
Cc1ccc(-c2cc(C(F)(F)F)cc3[nH]ncc23)c(C)n1 [Example 215, 4-(2,6-dimethylpyridin-3-yl)-6-(trifluoromethyl)-1H-indazole] | 50.1 nM | 7.94 nM
CCNC(=O)c1cccc(-c2cc(C(F)(F)F)cc3[nH]ncc23)c1 [Example 88, N-ethyl-3-(6-(trifluoromethyl)-1H-indazol-4-yl)benzamide] | 79.4 nM | 3.98 nM
CNc1nc(C)c(-c2cc(C(F)(F)F)cc3[nH]ncc23)cc1C(=O)N1CC(O)C1 [Example 397, (3-hydroxyazetidin-1-yl)(6-methyl-2-(methylamino)-5-(6-(trifluoromethyl)-1H-indazol-4-yl)pyridin-3-yl)methanone] | 15.8 nM | 3.98 nM
Fc1c(-c2cc(C(F)(F)F)cc3[nH]ncc23)ccnc1N1CCOCC1 [Example 65, 4-(3-fluoro-4-(6-(trifluoromethyl)-1H-indazol-4-yl)pyridin-2-yl)morpholine] | 15.8 nM | 12.6 nM
Cn1cc(-c2cc(C(F)(F)F)cc3[nH]ncc23)c(=O)n(CC(N)=O)c1=O [Example 300, 2-(3-methyl-2,6-dioxo-5-(6-(trifluoromethyl)-1H-indazol-4-yl)-2,3-dihydropyrimidin-1(6H)-yl)acetamide] | 398 nM | 12.6 nM
Cc1noc(C)c1-c1cc(C(F)(F)F)cc2[nH]ncc12 [Example 80, 3,5-dimethyl-4-(6-(trifluoromethyl)-1H-indazol-4-yl)isoxazole] | 79.4 nM | 7.94 nM
CS(=O)(=O)Nc1ccccc1-c1cc(C(F)(F)F)cc2[nH]ncc12 [Example 44, N-(2-(6-(trifluoromethyl)-1H-indazol-4-yl)phenyl)methanesulfonamide] | 50.1 nM | 5.01 nM
CN1CCN(C(=O)c2cc(-c3cc(C(F)(F)F)cc4[nH]ncc34)cnc2F)CC1 [Example 289, (2-fluoro-5-(6-(trifluoromethyl)-1H-indazol-4-yl)pyridin-3-yl)(4-methylpiperazin-1-yl)methanone] | 100 nM | 6.31 nM
